From patent publication US20260355170A1, “Treatment of Endometrial Cancer with MDM2 Inhibitors” (Kartos Therapeutics, Inc., priority 2023, published 2026)

Tests used:
Format in all cases: cell-based
HEC-151 cells = assay: CellTiter-Glo viability/proliferation assay, growth of HEC-151 TP53 WT endometrial cancer cells; conditions: 144 h, 6-day incubation
Method: (§1) The effect of MDM2 inhibitor compound of Formula (I) on growth of a p53 wild-type (TP53 WT) endometrial cancer cell line was assessed in HEC-151 cells, HEC-265 cells, and HEC-108 cells as described below.
(§2) Test and Control Article Preparation: A stock solution for Formula (I) was created by dissolving the compound in 100% DMSO to a concentration of 10 mM which was stored at −20 °C. Working solutions ranging from 0.04 μM to 10 μM to generate a 10-point dilution series were prepared by diluting the stock solution in culture media specific to each cell line (cell line assay media). Final concentrations of DMSO were kept constant at 0.1% to maintain cell viability. […]
(§3) Treatment of Cells for Proliferation Assay: Cells were counted (Countess III automated cell counter, Thermo Fisher Scientific) using a cell viability imaging kit (Thermo Fisher Scientific; cat #R37609). […]
(§4) On Day 0 prior treatment, and after the treatment period, the number of viable cells were measured using the CellTiter-Glo® Luminescent Cell Viability Assay (Promega) according to manufacturer instructions. The luminescence for each treatment condition was normalized to the DMSO control as a percent of control. Dose response curves were generated and EC50s and EC90s were determined based on percent of DMSO control. […]

HEC-265 cells = assay: CellTiter-Glo viability/proliferation assay, growth of HEC-265 TP53 WT endometrial cancer cells; conditions: 144 h, 6-day incubation
Method: as §1, §2, §3, §4

HEC-108 cells = assay: CellTiter-Glo viability/proliferation assay, growth of HEC-108 TP53 WT endometrial cancer cells
Method: as §1, §2, §3, §4

[1] = system: p53 wild-type (TP53 WT) endometrial cancer cell line; assay: Inhibition of endometrial cancer cell growth (overall result, FIG. 1); conditions: at clinically relevant doses; results shown in FIG. 1
Method: as §1, §2, §3, §4

[2] = read-out: Near complete growth inhibition (EC90)

EC50 (HEC-151 cells; percent of DMSO control): 400 nM
EC90 (HEC-151 cells; [2]): 700 nM
EC50 (HEC-265 cells; percent of DMSO control): 600 nM
EC90 (HEC-265 cells; [2]): 700 nM
SMILES: CC(C)[C@@H](CS(=O)(=O)C(C)C)N1C(=O)[C@@](C)(CC(=O)O)C[C@H](c2cccc(Cl)c2)[C@H]1c1ccc(Cl)cc1 [Formula (I), 2-((3R,5R,6S)-5-(3-chlorophenyl)-6-(4-chlorophenyl)-1-((S)-1-(isopropylsulfonyl)-3-methylbutan-2-yl)-3-methyl-2-oxopiperidin-3-yl) acetic Acid]
growth inhibition (200-point scale: 0 uninhibited growth, 100 cell stasis, 200 complete cell killing) (HEC-108 cells; at 10 μM, 6-day exposure): only nearly reached cell stasis
cell killing sensitivity (HEC-108 cells; compared with HEC-151 and HEC-265, 6-day exposure): less sensitive
growth inhibition [1]: growth inhibition by the compound of Formula (I) at clinically relevant doses
